Experimental data as given in patent US6872833B2, “Adenosine receptor ligands” (Hoffmann-La Roche Inc., priority 2003, dated 2005).

What was measured:
[1] = molecular target: T1, human adenosine A2A receptor (Homo sapiens, UniProt P29274); assay: [3H]-SCH-58261 binding assay, human adenosine A2A receptor (CHO cell membranes, SPA); conditions: recombinant human A2A receptor in CHO membranes, [3H]-SCH-58261 1 nM; read-out: hA2 (pKi) (converted)
T1 construct: expressed in transfected cells; host or cells: CHO cells, semliki forest virus expression system; washed membranes
Experimental: Human Adenosine A2A Receptor
(§1) The human adenosine A2A receptor was recombinantly expressed in Chinese hamster ovary (CHO) cells using the semliki forest virus expression system. Cells were harvested, washed twice by centrifugation, homogenized and again washed by centrifugation. The final washed membrane pellet was suspended in a Tris (50 mM) buffer containing 120 mM NaCl, 5 mM KCl, 2 mM CaCl2 and 10 mM MgCl2 (pH 7.4) (buffer A). The [^3H]-SCH-58261 (Dionisotti et al., 1997, Br J Pharmacol 121, 353; 1 nM) binding assay was carried out in 96-well plates in the presence of 2.5 μg of membrane protein, 0.5 mg of Ysi-poly-1-lysine SPA beads and 0.1 U adenosine deaminase in a final volume of 200 μl of buffer A. Non-specific binding was defined using xanthine amine congener (XAC; 2 μM). Compounds were tested at 10 concentrations from 10 μM-0.3 nM. All assays were conducted in duplicate and repeated at least two times. Assay plates were incubated for 1 hour at room temperature before centrifugation and then bound ligand determined using a Packard Topcount scintillation counter. IC50 values were calculated using a non-linear curve fitting program and Ki values calculated using the Cheng-Prussoff equation.

[2] = molecular target: T2, human adenosine A1 receptor (Homo sapiens, UniProt P30542); assay: [3H]-DPCPX binding assay, human adenosine A1 receptor (CHO cell membranes, SPA); conditions: selectivity of hA2A versus hA1 binding
T2 construct: expressed in transfected cells; host or cells: CHO cells, semliki forest virus expression system; washed membranes
T2 sequence (P30542 1-326): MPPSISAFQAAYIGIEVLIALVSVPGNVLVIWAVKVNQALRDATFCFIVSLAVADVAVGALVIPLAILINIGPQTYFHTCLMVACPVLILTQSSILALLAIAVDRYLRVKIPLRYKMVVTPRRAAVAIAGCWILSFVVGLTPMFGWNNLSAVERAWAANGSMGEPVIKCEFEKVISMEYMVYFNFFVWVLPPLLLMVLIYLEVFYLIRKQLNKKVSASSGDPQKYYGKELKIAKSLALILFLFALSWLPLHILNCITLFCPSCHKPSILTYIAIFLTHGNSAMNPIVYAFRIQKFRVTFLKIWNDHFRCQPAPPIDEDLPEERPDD
Experimental: Human Adenosine A1 Receptor
as §1, with “A1” for “A2A”, “[^3H]-DPCPX (([propyl-^3H]8-cyclopentyl-1,3-dipropyxanthine); 0.6” for “[^3H]-SCH-58261 (Dionisotti et al., 1997, Br J Pharmacol 121, 353; 1”, “ligand was” for “ligand”

T1 sequence (P29274 whole entry): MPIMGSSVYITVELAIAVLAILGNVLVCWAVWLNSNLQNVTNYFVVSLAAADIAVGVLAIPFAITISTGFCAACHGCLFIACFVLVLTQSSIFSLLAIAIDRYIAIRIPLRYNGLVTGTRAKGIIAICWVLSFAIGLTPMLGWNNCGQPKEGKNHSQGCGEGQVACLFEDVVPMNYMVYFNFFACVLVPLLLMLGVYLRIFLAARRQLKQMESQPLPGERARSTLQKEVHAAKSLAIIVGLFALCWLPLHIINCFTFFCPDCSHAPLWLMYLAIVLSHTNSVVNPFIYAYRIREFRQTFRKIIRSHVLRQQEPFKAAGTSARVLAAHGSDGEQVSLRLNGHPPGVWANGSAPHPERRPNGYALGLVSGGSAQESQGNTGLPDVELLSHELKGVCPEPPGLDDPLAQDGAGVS

| Compound | Ki [1] [nM] | Selectivity to hA1 [2] |
| --- | --- | --- |
| COc1cc(C(=O)Nc2nc3c(OC)ccc(C4COCCO4)c3s2)ccn1 (single isomer, unassigned; (+)) [Example 14, (+)-N-(7-[1,4]Dioxan-2-yl-4-methoxy-benzothiazol-2-yl)-2-methoxy-isonicotinamide] | 1.2 | 1828 |
| COc1ccc(C2COCCO2)c2sc(NC(=O)c3ccnc(N4CCC(O)CC4)c3)nc12 (single isomer, unassigned; (+)) [Example 29, (+)-4-Hydroxy-3,4,5,6-tetrahydro-2H-[1,2′]bipyridinyl-4′-carboxylic acid (7-[1,4]dioxan-2-yl-4-methoxy-benzothiazol-2-yl)-amide] | 1.07 | 2850 |
| COc1ccc(C2COCCO2)c2sc(NC(=O)c3ccnc(N4CCC4)c3)nc12 (single isomer, unassigned; (+)) [Example 18, (+)-2-Azetidin-1-yl-N-(7-[1,4]dioxan-2-yl-4-methoxy-benzothiazol-2-yl)-isonicotinamide] | 0.977 | 7378 |
| COc1ccc(C2COCCO2)c2sc(NC(=O)c3ccnc(C)c3)nc12 (single isomer, unassigned; (+)) [Example 15, (+)-N-(7-[1,4]Dioxan-2-yl-4-methoxy-benzothiazol-2-yl)-2-methyl-isonicotinamide] | 0.955 | 1758 |
| COc1ccc(C2COCCO2)c2sc(NC(=O)c3cccc(F)c3)nc12 (single isomer, unassigned; (+)) [Example 39, (+)-N-(7-[1,4]Dioxan-2-yl-4-methoxy-benzothiazol-2-yl)-3-fluoro-benzamide] | 1.07 | 674 |
| COc1ccc(C2COCCO2)c2sc(NC(=O)c3ccc(C)cc3)nc12 (single isomer, unassigned; (+)) [Example 34, (+)-N-(7-[1,4]Dioxan-2-yl-4-methoxy-benzothiazol-2-yl)-4-methyl-benzamide] | 0.417 | 4503 |
| COc1ccc(C(=O)Nc2nc3c(OC)ccc(C4COCCO4)c3s2)cc1 (single isomer, unassigned; (+)) [Example 33, (+)-N-(7-[1,4]Dioxan-2-yl-4-methoxy-benzothiazol-2-yl)-4-methoxy-benzamide] | 0.708 | 1238 |
| COc1ccc(C2COCCO2)c2sc(NC(=O)c3ccnc(N4CC(O)C4)c3)nc12 (single isomer, unassigned; (+)) [Example 49, (+)-N-(7-[1,4]Dioxan-2-yl-4-methoxy-benzothiazol-2-yl)-2-(3-hydroxy-azetidin-1-yl)-isonicotinamide] | 0.851 | 2319 |
| COc1ccc(C2COCCO2)c2sc(NC(=O)c3ccc4c(c3)OCO4)nc12 (single isomer, unassigned; (+)) [Example 36, (+)-Benzo[1,3]dioxole-5-carboxylic acid (7-[1,4]dioxan-2-yl-4-methoxy-benzothiazol-2-yl)-amide] | 0.537 | 1411 |
| COc1ccc(C2COCCO2)c2sc(NC(=O)c3ccnc(N4CC(F)C4)c3)nc12 (single isomer, unassigned; (+)) [Example 30, (+)-N-(7-[1,4]Dioxan-2-yl-4-methoxy-benzothiazol-2-yl)-2-(3-fluoro-azetidin-1-yl)-isonicotinamide] | 0.891 | 6138 |
| COc1ccc(C2COCCO2)c2sc(NC(=O)c3ccnc(OCCN4CCOCC4)c3)nc12 (single isomer, unassigned; (+)) [Example 52, (+)-N-(7-[1,4]Dioxan-2-yl-4-methoxy-benzothiazol-2-y)-2-(2-morpholin-4-yl-ethoxy)-isonicotinamide] | 0.501 | 3141 |
| COc1ccc(C2COCCO2)c2sc(NC(=O)c3ccnc(C4=CCOCC4)c3)nc12 (racemic) [Example 5, (±)-2-(3,6-Dihydro-2H-pyran-4-yl)-N-(7-[1,4]dioxan-2-yl-4-methoxy-benzothiazol-2-yl)-isonicotinamide] | 1.45 | 1421 |
| COc1cncc(C(=O)Nc2nc3c(OC)ccc(C4COCCO4)c3s2)c1 (single isomer, unassigned; (+)) [Example 53, (+)-N-(7-[1,4]Dioxan-2-yl-4-methoxy-benzothiazol-2-yl)-5-methoxy-nicotinamide] | 0.832 | 8832 |
| COc1ccc(C2COCCO2)c2sc(NC(=O)c3ccnc(N4CCOCC4)c3)nc12 (single isomer, unassigned; (+)) [Example 17, (+)-N-(7-[1,4]Dioxan-2-yl-4-methoxy-benzothiazol-2-yl)-2-morpholin-4-yl-isonicotinamide] | 0.676 | 3874 |
| CCOC1CN(c2cc(C(=O)Nc3nc4c(OC)ccc(C5COCCO5)c4s3)ccn2)C1 (single isomer, unassigned; (+)) [Example 31, (+)-N-(7-[1,4]Dioxan-2-yl-4-methoxy-benzothiazol-2-yl)-2-(3-ethoxy-azetidin-1-yl)-isonicotinamide] | 1.23 | 2718 |
| COc1ccc(C2COCCO2)c2sc(NC(=O)c3ccnc(N4CC(OC)C4)c3)nc12 (single isomer, unassigned; (+)) [Example 32, (+)-N-(7-[1,4]Dioxan-2-yl-4-methoxy-benzothiazol-2-yl)-2-(3-methoxy-azetidin-1-yl)-isonicotinamide] | 0.646 | 5404 |
| COc1cccc(C(=O)Nc2nc3c(OC)ccc(C4COCCO4)c3s2)c1 (single isomer, unassigned; (+)) [Example 37, (+)-N-(7-[1,4]Dioxan-2-yl-4-methoxy-benzothiazol-2-yl)-3-methoxy-benzamide] | 0.724 | 10082 |
| COc1ccc(C2COCCO2)c2sc(NC(=O)c3ccnc(C4CCOCC4)c3)nc12 (racemic) [Example 6, (±)-N-(7-[1,4]Dioxan-2-yl-4-methoxy-benzothiazol-2-yl)-2-(tetrahydro-pyran-4-yl)-isonicotinamide] | 1.32 | 1582 |
| COc1ccc(C2COCCO2)c2sc(NC(=O)c3ccc(F)cc3)nc12 (single isomer, unassigned; (+)) [Example 16, (+)-N-(7-[1,4]Dioxan-2-yl-4-methoxy-benzothiazol-2-yl)-4-fluoro-benzamide] | 0.832 | 1005 |
